Assay results published in BindingDB's records for doi:10.1016/j.bmc.2010.04.050 (Purdue University, 2010).

Molecular target: Low molecular weight phosphotyrosine protein phosphatase ACP1 (Homo sapiens) (UniProt P24666)
Assay: Inhibition of human cytoplasmic protein tyrosine phosphatase A assessed as change in enzyme activity at pH 7

Chain of Low molecular weight phosphotyrosine protein phosphatase ACP1 (Homo sapiens) (P24666 whole entry, looked up): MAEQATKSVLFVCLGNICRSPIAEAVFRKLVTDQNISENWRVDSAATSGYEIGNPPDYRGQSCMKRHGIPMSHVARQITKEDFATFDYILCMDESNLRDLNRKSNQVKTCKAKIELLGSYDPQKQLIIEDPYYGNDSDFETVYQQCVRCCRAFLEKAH

O=NC(Cc1ccnc2ccccc12)C(=O)O (stereo unspecified) [2-(hydroxyimino)-3-(quinolin-4-yl)propanoic acid]
IC50: 72 µM
